# Source: patent US7700617B2, “Salt of naphthyridine carboxylic acid derivative” (LG Life Sciences, Ltd., priority 1997, dated 2010)
# Legend:
# [1] = Chemical stability at elevated temperature, decomposition by liquid chromatography; format: physicochemical; settings: for Thermal stability with elapsed time: at 70° C.; for Chemical stability compared with the anhydrate: 70° C., liquid chromatography
# Experimental: The present inventors also compared the chemical stability under heating of the hydrates with that of the anhydrate in order to identify the influence of hydration on the chemical stability. In this test, the anhydrate and hydrate were each kept at 70° C. for 4 weeks, and the extent of decomposition is analyzed by liquid chromatography. No difference in the extent of decomposition was noticed between the hydrates and the anhydrate, and thus confirming that the hydrate has the same chemical stability as the anhydrate.
# The chemical stability of the n=3 hydrate of Example 2 and the n=1.5 hydrate of Example 3 and the anhydrate of Example 1 were compared at elevated temperature in order to determine the effect on chemical stability of the extent of hydration.
# The anhydrate and each of the hydrates were introduced into a glass vial and maintained at 70° C. The extent of decomposition with elapsed time was analyzed by liquid chromatography.
# [2] = Moisture sorption of the anhydrate, automatic moisture sorption analyzer; format: physicochemical; settings: 25° C., each relative humidity 0 to 95%, in most cases
# Experimental: The moisture sorption velocity and the equilibrium moisture content of the anhydrate of Example 1 was determined by means of an automatic moisture sorption analyzer (MB 300G Gravimetric Sorption Analyzer). This instrument produces a specific relative humidity at a specific temperature and continuously records the weight change of a sample due to adsorption or desorption of moisture as measured by a micro balance inside the instrument. The anhydrate of Example 1 (16 mg) was loaded onto the micro balance and the moisture contained in the sample removed under a stream of dried nitrogen at 50° C. A weight change of less than 5 μg per 5 minutes was the criterion for complete dryness. Thereafter, the inner temperature was adjusted to 25° C. and the sample tested at 5% intervals whilst varying the humidity from 0 to 95%. The sample was considered to have reached equilibrium when the weight change was less than 5 μg per 5 minutes. […] It is clear from FIG. 2 that the equilibrium moisture content of the anhydrate is dependent on the relative humidity.
# [3] = test system: Acinetobacter calcoaceticus 15473; test: In vitro antibacterial activity, agar medium dilution method; format: cell-based; settings: read-out: Minimum Inhibitory Concentration: MIC
# Experimental: (§1) In order to determine whether 7-(3-aminomethyl-4-methyloxyimino-pyrrolidin-1-yl)-1-cyclopropyl-6-fluoro-4-oxo-1,4-dihydro-1,8-naphthyridine-3-carboxylic acid methanesulfonate has the same antibacterial activity as the free base, in vitro antibacterial activity of the methanesulfonate was measured using agar medium dilution method.
# Bacillus subtilis 6633 = test: as above; format: cell-based; settings: read-out: Minimum Inhibitory Concentration: MIC
# Experimental: as §1
# Escherichia coli 10536 = test: as above; format: cell-based; settings: read-out: Minimum Inhibitory Concentration: MIC
# Experimental: as §1
# Escherichia coli 3190Y = test: as above; format: cell-based; settings: read-out: Minimum Inhibitory Concentration: MIC
# Experimental: as §1
# Escherichia coli 851E = test: as above; format: cell-based; settings: read-out: Minimum Inhibitory Concentration: MIC
# Experimental: as §1
# [4] = test system: Escherichia coli TEM3 3455E; test: as above; format: cell-based; settings: TEM33455E, read-out: Minimum Inhibitory Concentration: MIC
# Experimental: as §1
# [5] = test system: Escherichia coli TEM5 3739E; test: as above; format: cell-based; settings: TEM53739E, read-out: Minimum Inhibitory Concentration: MIC
# Experimental: as §1
# [6] = test system: Klebsiella aerogenes 1976E; test: as above; format: cell-based; settings: read-out: Minimum Inhibitory Concentration: MIC
# Experimental: as §1
# Micrococcus luteus 9431 = test: as above; format: cell-based; settings: read-out: Minimum Inhibitory Concentration: MIC
# Experimental: as §1
# Proteus vulgaris 6059 = test: as above; format: cell-based; settings: read-out: Minimum Inhibitory Concentration: MIC
# Experimental: as §1
# [7] = test system: Pseudomonas aeruginosa 10145; test: as above; format: cell-based; settings: read-out: Minimum Inhibitory Concentration: MIC
# Experimental: as §1
# [8] = test system: Pseudomonas aeruginosa 1912E; test: as above; format: cell-based; settings: read-out: Minimum Inhibitory Concentration: MIC
# Experimental: as §1
# [9] = test system: Salmonella thypimurium 14028; test: as above; format: cell-based; settings: read-out: Minimum Inhibitory Concentration: MIC
# Experimental: as §1
# Seratia marsecence 1826E = test: as above; format: cell-based; settings: read-out: Minimum Inhibitory Concentration: MIC
# Experimental: as §1
# [10] = test system: Staphylococcus aureus 241; test: as above; format: cell-based; settings: read-out: Minimum Inhibitory Concentration: MIC
# Experimental: as §1
# [11] = test system: Staphylococcus aureus 6538p; test: as above; format: cell-based; settings: weight ratio, molecular weight not considered, read-out: Minimum Inhibitory Concentration: MIC
# Experimental: as §1
# Staphylococcus aureus 77 = test: as above; format: cell-based; settings: read-out: Minimum Inhibitory Concentration: MIC
# Experimental: as §1
# [12] = test system: Staphylococcus aureus epidermidis 178; test: as above; format: cell-based; settings: read-out: Minimum Inhibitory Concentration: MIC
# Experimental: as §1
# [13] = test system: Staphylococcus aureus epidermidis 887E; test: as above; format: cell-based; settings: read-out: Minimum Inhibitory Concentration: MIC
# Experimental: as §1
# [14] = test system: Staphylococcus aureus faecalis 29212; test: as above; format: cell-based; settings: read-out: Minimum Inhibitory Concentration: MIC
# Experimental: as §1
# [15] = test system: Staphylococcus aureus giorgio; test: as above; format: cell-based; settings: read-out: Minimum Inhibitory Concentration: MIC
# Experimental: as §1
# Water solubility = settings: 25 °C
# [16] = test system: Citrobacter diversus 2046E; test: In vitro antibacterial activity, agar medium dilution method; format: cell-based; settings: Citrobacter koseri, read-out: Minimum Inhibitory Concentration: MIC
# Experimental: as §1
# [17] = test system: Enterobacter cloacae 1194E; test: as above; format: cell-based; settings: read-out: Minimum Inhibitory Concentration: MIC
# Experimental: as §1
# Enterobacter cloacae P99 = test: as above; format: cell-based; settings: read-out: Minimum Inhibitory Concentration: MIC
# Experimental: as §1
# [18] = test system: Escherichia coli TEM9 2639E; test: as above; format: cell-based; settings: TEM92639E, read-out: Minimum Inhibitory Concentration: MIC
# Experimental: as §1
# [19] = test system: Klebsiella aerogenes 1082E; test: as above; format: cell-based; settings: read-out: Minimum Inhibitory Concentration: MIC
# Experimental: as §1
# [20] = Equilibrium moisture content determination of hydrates in desiccators of controlled relative humidity; format: physicochemical; settings: for Relative humidity range with constant moisture content: FIGS. 3 and 4
# Experimental: Six saturated aqueous salt solutions were introduced into each desiccator to control the inner relative humidity to a specific value as shown in Table 3. Then, equilibrium moisture contents of n=3 hydrate and n=1.5 hydrate of Examples 2 and 3, respectively, were determined at several relative humidities.
# The sample (100 mg) was spread on a pre-weighed Petri dish and the total weight was accurately measured, then three of the sample were placed in each desiccator of Table 3. The desiccators were allowed to stand at normal temperature for 7 days and then the sample was taken to be weighed. After 13 days, one of the three samples inside each desiccator was taken and the moisture content of each was measured by the thermogravimetric analysis described in Test Example 2. Equilibrium moisture content at each relative humidity is represented in FIG. 3 (n=3 hydrate) and FIG. 4 (n=1.5 hydrate). […] Both hydrates are stable since they maintain a constant equilibrium moisture content regardless of the relative humidity change.
# [21] = Observed moisture content of the methanesulfonate hydrates; format: physicochemical; settings: by hydration number (n)
# Text: The moisture content of the methanesulfonate hydrates varies with the hydration number (n) of the hydrated molecule. The methanesulfonate has a molecular weight of 485.5 thus the calculated moisture content of hydrates where n is 1, 1.5, 2, 2.5, 3, 3.5 and 4 is 3.6%, […], 6.9%, 8.5%, 10.0%, 11.5% and 12.9% respectively. However, the actual moisture content of the methanesulfonate hydrates may differ from the calculated value depending on various factors including recrystallization conditions and drying conditions.
structure (smiles),measurement,setting,value
"CON=C1CN(c2nc3c(cc2F)c(=O)c(C(=O)O)cn3C2CC2)CC1CN.CS(=O)(=O)O (stereo not drawn) [Anhydrate, 7-(3-aminomethyl-4-methoxyiminopyrrolidin-1-yl)-1-cyclopropyl-6-fluoro-4-oxo-1,4-dihydro-1,8-naphthyridine-3-carboxylic acid methanesulfonate anhydrate]",Thermal stability with elapsed time,[1]; 1 week,99.8%
same,Thermal stability with elapsed time,[1]; 2 weeks,98.6%
same,Thermal stability with elapsed time,[1]; 3 weeks,97.7%
same,Thermal stability with elapsed time,[1]; 4 weeks,96.7%
same,Thermal stability with elapsed time,[1]; Initial,100%
same,Time to reach moisture sorption equilibrium,[2],≤ 2 h
"O=C(O)c1cn(C2CC2)c2cc(N3CCNCC3)c(F)cc2c1=O [Ciprofloxacin, ciprofloxacin, reference compound]",MIC,[3],0.25 µg/mL
same,MIC,Bacillus subtilis 6633,0.031 µg/mL
same,MIC,Escherichia coli 10536,< 0.008 µg/mL
same,MIC,Escherichia coli 3190Y,< 0.008 µg/mL
same,MIC,Escherichia coli 851E,< 0.008 µg/mL
same,MIC,[4],0.5 µg/mL
same,MIC,[5],0.13 µg/mL
same,MIC,[6],0.13 µg/mL
same,MIC,Micrococcus luteus 9431,2 µg/mL
same,MIC,Proteus vulgaris 6059,0.031 µg/mL
same,MIC,[7],0.5 µg/mL
same,MIC,[8],0.13 µg/mL
same,MIC,[9],0.031 µg/mL
same,MIC,Seratia marsecence 1826E,0.063 µg/mL
same,MIC,[10],128 µg/mL
same,MIC,[11],0.13 µg/mL
same,MIC,Staphylococcus aureus 77,0.25 µg/mL
same,MIC,[12],128 µg/mL
same,MIC,[13],0.13 µg/mL
same,MIC,[14],0.5 µg/mL
same,MIC,[15],0.13 µg/mL
"CO/N=C1\CN(c2nc3c(cc2F)c(=O)c(C(=O)O)cn3C2CC2)CC1CN (stereo not drawn) [Free form, 7-(3-aminomethyl-4-methoxyiminopyrrolidin-1-yl)-1-cyclopropyl-6-fluoro-4-oxo-1,4-dihydro-1,8-naphthyridine-3-carboxylic acid]",solubility,Water solubility,7 µg/mL
"CON=C1CN(c2nc3c(cc2F)c(=O)c(C(=O)O)cn3C2CC2)CC1CN.CS(=O)(=O)O (stereo not drawn) [Methanesulfonic acid salt, 7-(3-aminomethyl-4-methyloxyimino-pyrrolidin-1-yl)-1-cyclopropyl-6-fluoro-4-oxo-1,4-dihydro-1,8-naphthyridine-3-carboxylic acid methanesulfonate]",MIC,[3],0.031 µg/mL
same,MIC,Bacillus subtilis 6633,0.016 µg/mL
same,MIC,[16],0.031 µg/mL
same,MIC,[17],0.031 µg/mL
same,MIC,Enterobacter cloacae P99,0.016 µg/mL
same,MIC,Escherichia coli 10536,0.008 µg/mL
same,MIC,Escherichia coli 3190Y,0.008 µg/mL
same,MIC,Escherichia coli 851E,0.016 µg/mL
same,MIC,[4],0.25 µg/mL
same,MIC,[5],0.13 µg/mL
same,MIC,[18],0.031 µg/mL
same,MIC,[19],0.031 µg/mL
same,MIC,[6],0.13 µg/mL
same,MIC,Micrococcus luteus 9431,0.13 µg/mL
same,MIC,Proteus vulgaris 6059,0.25 µg/mL
same,MIC,[7],0.5 µg/mL
same,MIC,[8],0.25 µg/mL
same,MIC,[9],0.031 µg/mL
same,MIC,Seratia marsecence 1826E,0.13 µg/mL
same,MIC,[10],4 µg/mL
same,MIC,[11],0.016 µg/mL
same,MIC,Staphylococcus aureus 77,0.031 µg/mL
same,MIC,[12],4 µg/mL
same,MIC,[13],0.016 µg/mL
same,MIC,[14],0.13 µg/mL
same,MIC,[15],0.016 µg/mL
"CON=C1CN(c2nc3c(cc2F)c(=O)c(C(=O)O)cn3C2CC2)CC1CN.CON=C1CN(c2nc3c(cc2F)c(=O)c(C(=O)O)cn3C2CC2)CC1CN.CS(=O)(=O)O.CS(=O)(=O)O.O.O.O (stereo not drawn) [n = 1.5 hydrate, 7-(3-aminomethyl-4-methoxyiminopyrrolidin-1-yl)-1-cyclopropyl-6-fluoro-4-oxo-1,4-dihydro-1,8-naphthyridine-3-carboxylic acid methanesulfonate n=1.5 hydrate]",Chemical stability compared with the anhydrate,[1]; 4 weeks,same degree of chemical stability as the anhydrate
same,Thermal stability with elapsed time,[1]; 1 week,97.3%
same,Thermal stability with elapsed time,[1]; 2 weeks,95.8%
same,Thermal stability with elapsed time,[1]; 3 weeks,97.2%
same,Thermal stability with elapsed time,[1]; 4 weeks,96.2%
same,Thermal stability with elapsed time,[1]; Initial,100%
same,Relative humidity range with constant moisture content,[20],23 to 64%
same,Water taken up,[20]; above 75% relative humidity,over 10%
same,Equilibrium moisture content,[20]; relative humidity 23 to 64%,around 5%
same,Moisture Content,"[21]; listed as 1.5, hydrate",4~6 % w/w
CON=C1CN(c2nc3c(cc2F)c(=O)c(C(=O)O)cn3C2CC2)CC1CN.CON=C1CN(c2nc3c(cc2F)c(=O)c(C(=O)O)cn3C2CC2)CC1CN.CS(=O)(=O)O.CS(=O)(=O)O.O.O.O.O.O (stereo not drawn) [n = 2.5 hydrate],Moisture Content,[21],8~9 % w/w
"CON=C1CN(c2nc3c(cc2F)c(=O)c(C(=O)O)cn3C2CC2)CC1CN.CS(=O)(=O)O.O.O.O (stereo not drawn) [n = 3 hydrate, 7-(3-aminomethyl-4-methoxyiminopyrrolidin-1-yl)-1-cyclopropyl-6-fluoro-4-oxo-1,4-dihydro-1,8-naphthyridine-3-carboxylic acid methanesulfonate n=3 hydrate]",Chemical stability compared with the anhydrate,[1]; 4 weeks,same degree of chemical stability as the anhydrate
same,Thermal stability with elapsed time,[1]; 1 week,102.4%
same,Thermal stability with elapsed time,[1]; 2 weeks,100.7%
same,Thermal stability with elapsed time,[1]; 3 weeks,99.2%
same,Thermal stability with elapsed time,[1]; 4 weeks,99.2%
same,Thermal stability with elapsed time,[1]; Initial,100%
same,Relative humidity range with constant moisture content,[20],23 to 75%
same,Equilibrium moisture content,"[20]; relative humidity 23 to 75%, about 2 weeks",around 10%
CON=C1CN(c2nc3c(cc2F)c(=O)c(C(=O)O)cn3C2CC2)CC1CN.CON=C1CN(c2nc3c(cc2F)c(=O)c(C(=O)O)cn3C2CC2)CC1CN.CS(=O)(=O)O.CS(=O)(=O)O.O.O.O.O.O.O.O (stereo not drawn) [n = 3.5 hydrate],Moisture Content,[21],11~12 % w/w
CON=C1CN(c2nc3c(cc2F)c(=O)c(C(=O)O)cn3C2CC2)CC1CN.CS(=O)(=O)O.O.O.O.O (stereo not drawn) [n = 4 hydrate],Moisture Content,[21],12~13 % w/w
